From PubChem BioAssay (NCI)
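Each compound was tested at five concentrations against cells in 96-well plates for 48 hours. Definition used: TGI = concentration required for complete inhibition of growth.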

How the values were obtained:
Assay in all cases: NCI-60 cell line screen, 48 h
HOP-62 NSCLC = test system: HOP-62 NSCLC
SF-268 CNS = test system: SF-268 CNS
SK-OV-3 ovarian = test system: SK-OV-3 ovarian
CAKI-1 renal = test system: CAKI-1 renal
MOLT-4 leukemia = test system: MOLT-4 leukemia
NCI-H23 lung = test system: NCI-H23 lung
RPMI-8226 leukemia = test system: RPMI-8226 leukemia
HOP-92 NSCLC = test system: HOP-92 NSCLC
SF-539 CNS = test system: SF-539 CNS
NCI-H226 lung = test system: NCI-H226 lung
HS 578T breast = test system: HS 578T breast
ACHN renal = test system: ACHN renal
SN12C renal = test system: SN12C renal
MCF7 breast = test system: MCF7 breast
HCT-15 colon = test system: HCT-15 colon
OVCAR-5 ovarian = test system: OVCAR-5 ovarian
OVCAR-3 ovarian = test system: OVCAR-3 ovarian
NCI/ADR-RES ovarian = test system: NCI/ADR-RES ovarian
EKVX NSCLC = test system: EKVX NSCLC
SNB-75 CNS = test system: SNB-75 CNS
A549 NSCLC = test system: A549 NSCLC
COLO 205 colon = test system: COLO 205 colon
BT-549 breast = test system: BT-549 breast
SNB-19 CNS = test system: SNB-19 CNS
NCI-H522 lung = test system: NCI-H522 lung
DU-145 prostate = test system: DU-145 prostate
SK-MEL-2 melanoma = test system: SK-MEL-2 melanoma
SK-MEL-5 melanoma = test system: SK-MEL-5 melanoma
MALME-3M melanoma = test system: MALME-3M melanoma
M14 melanoma = test system: M14 melanoma
PC-3 prostate = test system: PC-3 prostate
HL-60(TB) leukemia = test system: HL-60(TB) leukemia
K-562 leukemia = test system: K-562 leukemia
CCRF-CEM leukemia = test system: CCRF-CEM leukemia
HCT-116 colon = test system: HCT-116 colon
SW-620 colon = test system: SW-620 colon
T-47D breast = test system: T-47D breast
SF-295 CNS = test system: SF-295 CNS
UO-31 renal = test system: UO-31 renal
OVCAR-8 ovarian = test system: OVCAR-8 ovarian
IGROV1 ovarian = test system: IGROV1 ovarian
MDA-MB-435 = test system: MDA-MB-435
SK-MEL-28 melanoma = test system: SK-MEL-28 melanoma
A498 renal = test system: A498 renal
RXF 393 renal = test system: RXF 393 renal
LOX IMVI melanoma = test system: LOX IMVI melanoma
MDA-N = test system: MDA-N
KM12 colon = test system: KM12 colon
SR leukemia = test system: SR leukemia
UACC-62 melanoma = test system: UACC-62 melanoma
HT29 colon = test system: HT29 colon
OVCAR-4 ovarian = test system: OVCAR-4 ovarian
MDA-MB-231 breast = test system: MDA-MB-231 breast
786-0 renal = test system: 786-0 renal
U251 CNS = test system: U251 CNS
NCI-H460 lung = test system: NCI-H460 lung
UACC-257 melanoma = test system: UACC-257 melanoma
TK-10 renal = test system: TK-10 renal
HCC-2998 colon = test system: HCC-2998 colon

COc1cc(S(=O)(=O)Nc2ccc(-c3csc(N4C(=O)C(C)SC4c4cccc(Oc5ccccc5)c4)n3)cc2)ccc1Cl (stereo unspecified)
TGI (HOP-62 NSCLC): > 100 µM | TGI (SF-268 CNS): > 100 µM | TGI (SK-OV-3 ovarian): > 100 µM | TGI (CAKI-1 renal): > 100 µM | TGI (MOLT-4 leukemia): > 100 µM | TGI (NCI-H23 lung): > 100 µM | TGI (RPMI-8226 leukemia): > 100 µM | TGI (HOP-92 NSCLC): > 100 µM | TGI (SF-539 CNS): > 100 µM | TGI (NCI-H226 lung): > 100 µM | TGI (HS 578T breast): > 100 µM | TGI (ACHN renal): > 100 µM | TGI (SN12C renal): > 100 µM | TGI (MCF7 breast): 72.2 µM | TGI (HCT-15 colon): > 100 µM | TGI (OVCAR-5 ovarian): > 100 µM | TGI (OVCAR-3 ovarian): > 100 µM | TGI (NCI/ADR-RES ovarian): > 100 µM | TGI (EKVX NSCLC): > 100 µM | TGI (SNB-75 CNS): > 100 µM | TGI (A549 NSCLC): > 100 µM | TGI (COLO 205 colon): > 100 µM | TGI (BT-549 breast): > 100 µM | TGI (SNB-19 CNS): > 100 µM | TGI (NCI-H522 lung): > 100 µM | TGI (DU-145 prostate): > 100 µM | TGI (SK-MEL-2 melanoma): > 100 µM | TGI (SK-MEL-5 melanoma): > 100 µM | TGI (MALME-3M melanoma): > 100 µM | TGI (M14 melanoma): > 100 µM | TGI (PC-3 prostate): > 100 µM | TGI (HL-60(TB) leukemia): 67.2 µM | TGI (K-562 leukemia): > 100 µM | TGI (CCRF-CEM leukemia): > 100 µM | TGI (HCT-116 colon): > 100 µM | TGI (SW-620 colon): > 100 µM | TGI (T-47D breast): > 100 µM | TGI (SF-295 CNS): > 100 µM | TGI (UO-31 renal): > 100 µM | TGI (OVCAR-8 ovarian): > 100 µM | TGI (IGROV1 ovarian): > 100 µM | TGI (MDA-MB-435): > 100 µM | TGI (SK-MEL-28 melanoma): > 100 µM | TGI (A498 renal): 79.3 µM | TGI (RXF 393 renal): 88.2 µM | TGI (LOX IMVI melanoma): > 100 µM | TGI (MDA-N): > 100 µM | TGI (KM12 colon): > 100 µM | TGI (SR leukemia): > 100 µM | TGI (UACC-62 melanoma): > 100 µM | TGI (HT29 colon): > 100 µM

CC(CCc1ccccc1)NCC(O)n1c(/N=N/N(C)C)nc2c1c(=O)n(C)c(=O)n2C (stereo unspecified)
TGI (HOP-62 NSCLC): > 100 µM | TGI (OVCAR-4 ovarian): > 100 µM | TGI (SF-268 CNS): > 100 µM | TGI (SK-OV-3 ovarian): > 100 µM | TGI (CAKI-1 renal): > 100 µM | TGI (MOLT-4 leukemia): > 100 µM | TGI (NCI-H23 lung): > 100 µM | TGI (MDA-MB-231 breast): > 100 µM | TGI (RPMI-8226 leukemia): > 100 µM | TGI (HOP-92 NSCLC): > 100 µM | TGI (SF-539 CNS): > 100 µM | TGI (NCI-H226 lung): > 100 µM | TGI (HS 578T breast): > 100 µM | TGI (ACHN renal): > 100 µM | TGI (MCF7 breast): > 100 µM | TGI (HCT-15 colon): > 100 µM | TGI (OVCAR-5 ovarian): > 100 µM | TGI (786-0 renal): > 100 µM | TGI (OVCAR-3 ovarian): > 100 µM | TGI (NCI/ADR-RES ovarian): > 100 µM | TGI (EKVX NSCLC): > 100 µM | TGI (SNB-75 CNS): > 100 µM | TGI (A549 NSCLC): > 100 µM | TGI (COLO 205 colon): > 100 µM | TGI (U251 CNS): > 100 µM | TGI (BT-549 breast): > 100 µM | TGI (NCI-H460 lung): > 100 µM | TGI (SNB-19 CNS): > 100 µM | TGI (NCI-H522 lung): > 100 µM | TGI (SK-MEL-2 melanoma): > 100 µM | TGI (SK-MEL-5 melanoma): > 100 µM | TGI (MALME-3M melanoma): > 100 µM | TGI (M14 melanoma): > 100 µM | TGI (PC-3 prostate): > 100 µM | TGI (UACC-257 melanoma): > 100 µM | TGI (HL-60(TB) leukemia): > 100 µM | TGI (K-562 leukemia): > 100 µM | TGI (CCRF-CEM leukemia): > 100 µM | TGI (HCT-116 colon): > 100 µM | TGI (SW-620 colon): > 100 µM | TGI (T-47D breast): > 100 µM | TGI (SF-295 CNS): > 100 µM | TGI (UO-31 renal): > 100 µM | TGI (OVCAR-8 ovarian): > 100 µM | TGI (IGROV1 ovarian): > 100 µM | TGI (MDA-MB-435): > 100 µM | TGI (SK-MEL-28 melanoma): > 100 µM | TGI (A498 renal): > 100 µM | TGI (RXF 393 renal): > 100 µM | TGI (LOX IMVI melanoma): > 100 µM | TGI (MDA-N): > 100 µM | TGI (KM12 colon): > 100 µM | TGI (SR leukemia): > 100 µM | TGI (UACC-62 melanoma): > 100 µM | TGI (TK-10 renal): > 100 µM | TGI (HT29 colon): > 100 µM

CC1=C(C(=O)OCCc2ccc([N+](=O)[O-])cc2)C(c2cccc([N+](=O)[O-])c2)C(C(=O)OC(C)C)=C(C)N1 (stereo unspecified)
TGI (HOP-62 NSCLC): > 100 µM | TGI (OVCAR-4 ovarian): > 100 µM | TGI (SF-268 CNS): > 100 µM | TGI (SK-OV-3 ovarian): > 100 µM | TGI (CAKI-1 renal): > 100 µM | TGI (MOLT-4 leukemia): > 100 µM | TGI (NCI-H23 lung): > 100 µM | TGI (SF-539 CNS): > 100 µM | TGI (NCI-H226 lung): > 100 µM | TGI (HS 578T breast): > 100 µM | TGI (ACHN renal): > 100 µM | TGI (SN12C renal): > 100 µM | TGI (MCF7 breast): > 100 µM | TGI (HCT-15 colon): > 100 µM | TGI (OVCAR-5 ovarian): > 100 µM | TGI (786-0 renal): > 100 µM | TGI (HCC-2998 colon): > 100 µM | TGI (OVCAR-3 ovarian): > 100 µM | TGI (NCI/ADR-RES ovarian): > 100 µM | TGI (EKVX NSCLC): > 100 µM | TGI (SNB-75 CNS): 76.7 µM | TGI (A549 NSCLC): > 100 µM | TGI (COLO 205 colon): > 100 µM | TGI (U251 CNS): > 100 µM | TGI (BT-549 breast): > 100 µM | TGI (NCI-H460 lung): > 100 µM | TGI (SNB-19 CNS): > 100 µM | TGI (NCI-H522 lung): 7.71 µM | TGI (DU-145 prostate): > 100 µM | TGI (SK-MEL-2 melanoma): > 100 µM | TGI (SK-MEL-5 melanoma): 7.25 µM | TGI (MALME-3M melanoma): > 100 µM | TGI (M14 melanoma): > 100 µM | TGI (PC-3 prostate): > 100 µM | TGI (UACC-257 melanoma): > 100 µM | TGI (K-562 leukemia): > 100 µM | TGI (CCRF-CEM leukemia): > 100 µM | TGI (HCT-116 colon): > 100 µM | TGI (SW-620 colon): > 100 µM | TGI (T-47D breast): > 100 µM | TGI (SF-295 CNS): > 100 µM | TGI (UO-31 renal): > 100 µM | TGI (OVCAR-8 ovarian): > 100 µM | TGI (IGROV1 ovarian): > 100 µM | TGI (MDA-MB-435): > 100 µM | TGI (SK-MEL-28 melanoma): > 100 µM | TGI (RXF 393 renal): > 100 µM | TGI (LOX IMVI melanoma): > 100 µM | TGI (MDA-N): > 100 µM | TGI (KM12 colon): > 100 µM | TGI (SR leukemia): > 100 µM | TGI (UACC-62 melanoma): > 100 µM | TGI (TK-10 renal): > 100 µM | TGI (HT29 colon): > 100 µM
